Reference: patent US20220317138A1, “METHODS FOR DETERMINING THE CONCENTRATION OF A CARBAPENEM ANTIBIOTIC IN A BIOLOGICAL SAMPLE” (priority 2019, published 2022)
Where two headings read alike, the source gives them in different places.

B1: Kpc2: class A beta-lactamase screened (protein, UniProt Q9F663 25-293, looked up)
Carbapenem-hydrolyzing …: LTNLVAEPFAKLEQDFGGSIGVYAMDTGSGATVSYRAEERFPLCSSFKGFLAAAVLARSQQQAGLLDTPIRYGKNALVPWSPISEKYLTTGMTVAELSAAAVQYSDNAAANLLLKELGGPAGLTAFMRSIGDTTFRLDRWELELNSAIPGDARDTSSPRAVTESLQKLTLGSALAAPQRQQFVDWLKGNTTGNHRIRAAVPADWAVGDKTGTCGVYGTANDYAVVWPTGRAPIVLAVYTRAPNKDDKHSEAVIAAAARLALEGLGVNGQ
B2: Ndm1: class B beta-lactamase screened (protein, UniProt C7C422 29-270, looked up)
Metallo-beta-lactamase type 2: GEIRPTIGQQMETGDQRFGDLVFRQLAPNVWQHTSYLDMPGFGAVASNGLIVRDGGRVLVVDTAWTDDQTAQILNWIKQEINLPVALAVVTHAHQDKMGGMDALHAAGIATYANALSNQLAPQEGMVAAQHSLTFAANGWVEPATAPNFGPLKVFYPGPGHTSDNITVGIDGTDIAFGGCLIKDSKAKSLGNLGDADTEHYAASARAFGAAFPKASMIVMSHSAPDSRAAITHTARMADKLR
B3: Oxa48: beta-lactamase class D OXA-48 from Klebsiella pneumoniae, used as biosensor (protein, listed as Klebsiella pneumoniae)
chain: MRVLALSAVFLVASIIGMPAVAKEWQENKSWNAHFTEHKSQGVVVLWNENKQQGFTNNLKRANQAFLPASTFKIPNSLIALDLGVVKDEHQVFKWDGQTRDIATWNRDHNLITAMKYSVVPVYQEFARQIGEARMSKMLHAFDYGNEDISGNVDSFWLDGGIRISATEQISFLRKLYHNKLHVSERSQRIVKQAMLTEANGDYIIRAKTGYSTRIEPKIGWWVGWVELDDNVWFFAMNMDMPTSDGLGLRQAITKEVLKQEKIIP
modifications: PEPTIDE (1)..(22) SIGNAL PEPTIDE
notes: beta-lactamase class D OXA-48 from Klebsiella pneumoniae, used as biosensor

Experiments:
[1] = molecular target: Imp1 beta-lactamase (class B) (Serratia marcescens, UniProt P52699); format: biochemical; settings: nitrocefin reporter
[2] = molecular target: beta-lactamase class D OXA-48 (Klebsiella pneumoniae, UniProt Q6XEC0); format: biochemical; settings: for Accuracy <> (average) / [Meropenem] <> (average): average of 5 replicates
From the text: The specificity (or selectivity) of the method according to an embodiment of the invention is defined as the ability of the method to measure the concentration of a carbapenem antibiotic (such as meropenem) in presence of an excess of another beta-lactam antibiotic (second beta-lactam) currently used in ICUs (see Table 4).
To determine the specificity of the method illustrating the invention for carbapenem antibiotics, in particular meropenem, versus other beta-lactam antibiotics, stock-solutions of second beta-lactam antibiotics were prepared in water.
An excess of a second beta-lactam concentration of up to 10 times the concentration of meropenem was used.

[3] = system: AmpCHD beta-lactamase (class C); test: Screening of beta-lactamases by competition, nitrocefin as reporter substrate; format: biochemical
[4] = system: Imp4 beta-lactamase (class B); test: as above; format: biochemical
[5] = molecular target: P99 beta-lactamase (class C) (Enterobacter cloacae, UniProt P05364); format: biochemical; settings: nitrocefin reporter
[6] = molecular target: Ndm1 beta-lactamase (class B) (Klebsiella pneumoniae, UniProt C7C422); format: biochemical; settings: nitrocefin reporter
[7] = system: Per2 beta-lactamase (class A); test: Screening of beta-lactamases by competition, nitrocefin as reporter substrate; format: biochemical
[8] = molecular target: CTXM15 beta-lactamase (class A) (Escherichia coli, UniProt Q9EXV5); format: biochemical; settings: nitrocefin reporter
[9] = molecular target: Oxa48 beta-lactamase (class D) (Klebsiella pneumoniae, UniProt Q6XEC0); format: biochemical; settings: nitrocefin reporter
[10] = Activity loss of the beta-lactamase in 1 h; format: physicochemical; settings: enzyme activity
[11] = Meropenem 1.2 mg/L, second β-lactam 10.0 mg/L (8.4 times excess)
[12] = Meropenem 20.0 mg/L, second β-lactam 200.0 mg/L (10 times excess)

P99 beta-lactamase (class C), sequence (P05364 21-381): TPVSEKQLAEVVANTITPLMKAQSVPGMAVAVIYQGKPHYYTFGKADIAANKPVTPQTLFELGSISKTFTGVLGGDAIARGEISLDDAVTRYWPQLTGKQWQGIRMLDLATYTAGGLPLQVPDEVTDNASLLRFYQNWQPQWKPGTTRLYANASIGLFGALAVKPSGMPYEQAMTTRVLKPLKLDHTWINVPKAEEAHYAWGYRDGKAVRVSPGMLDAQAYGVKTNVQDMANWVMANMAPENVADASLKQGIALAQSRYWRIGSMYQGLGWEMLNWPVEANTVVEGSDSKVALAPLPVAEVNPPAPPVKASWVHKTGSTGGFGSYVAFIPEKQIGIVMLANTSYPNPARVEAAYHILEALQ
Imp1 beta-lactamase (class B), sequence (P52699 19-246 limits assumed): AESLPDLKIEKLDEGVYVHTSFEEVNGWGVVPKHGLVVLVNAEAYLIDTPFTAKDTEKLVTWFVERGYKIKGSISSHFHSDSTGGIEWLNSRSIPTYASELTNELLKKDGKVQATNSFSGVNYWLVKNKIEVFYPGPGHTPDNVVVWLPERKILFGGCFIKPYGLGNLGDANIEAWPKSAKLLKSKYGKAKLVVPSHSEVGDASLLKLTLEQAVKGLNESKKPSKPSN
CTXM15 beta-lactamase (class A), sequence (Q9EXV5 29-291 limits assumed): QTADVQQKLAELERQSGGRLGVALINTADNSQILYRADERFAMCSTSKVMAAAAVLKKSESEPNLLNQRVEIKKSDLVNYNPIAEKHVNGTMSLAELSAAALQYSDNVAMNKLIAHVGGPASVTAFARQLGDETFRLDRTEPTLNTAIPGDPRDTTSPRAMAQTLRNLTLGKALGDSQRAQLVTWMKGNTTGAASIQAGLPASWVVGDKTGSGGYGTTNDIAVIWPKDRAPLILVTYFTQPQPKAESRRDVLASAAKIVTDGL

Molecule | Accuracy <> (average) [2, 11] | [Meropenem] <> (average) [2, 11] | Accuracy Replicate 1 [2, 11] | [Meropenem] Replicate 1 [2, 11] | Accuracy Replicate 2 [2, 11] | [Meropenem] Replicate 2 [2, 11] | Accuracy Replicate 3 [2, 11] | [Meropenem] Replicate 3 [2, 11] | Accuracy Replicate 4 [2, 11] | [Meropenem] Replicate 4 [2, 11] | Accuracy Replicate 5 [2, 11] | [Meropenem] Replicate 5 [2, 11] | Accuracy <> (average) [2, 12] | [Meropenem] <> (average) [2, 12] | Accuracy Replicate 1 [2, 12] | [Meropenem] Replicate 1 [2, 12] | Accuracy Replicate 2 [2, 12] | [Meropenem] Replicate 2 [2, 12] | Accuracy Replicate 3 [2, 12] | [Meropenem] Replicate 3 [2, 12] | further results
CO/N=C(\C(=O)N[C@@H]1C(=O)N2C(C(=O)O)=C(COC(C)=O)CS[C@H]12)c1csc(N)n1 [Cefotaxim ® Sandoz] | 111% | 1.3 mg/L | 109% | 1.3 mg/L | 116% | 1.3 mg/L | 107% | 1.2 mg/L | 110% | 1.3 mg/L | 115% | 1.3 mg/L | 92% | 20.5 mg/L | 93% | 20.8 mg/L | 94% | 20.9 mg/L | 91% | 20.2 mg/L | hydrolysis rate symbol, (Vmax/V0)-1 [1]: + (0.1-1); Accuracy Replicate 4 [2, 12]: 91%; [Meropenem] Replicate 4 [2, 12]: 20.2 mg/L; Accuracy Replicate 5 [2, 12]: 91%; [Meropenem] Replicate 5 [2, 12]: 20.2 mg/L; hydrolysis rate symbol, (Vmax/V0)-1 [3]: + (0.1-1); hydrolysis rate symbol, (Vmax/V0)-1 [4]: + (0.1-1); hydrolysis rate symbol, (Vmax/V0)-1 [5]: ++++ (>100)
Cn1nnnc1SCC1=C(C(=O)O)N2C(=O)[C@@H](NC(=O)[C@H](O)c3ccccc3)[C@H]2SC1 [Cefamandole ®, Cefamandole] | 115% | 1.3 mg/L | 112% | 1.3 mg/L | 116% | 1.3 mg/L | 114% | 1.3 mg/L | 123% | 1.4 mg/L | 112% | 1.3 mg/L | 99% | 22.0 mg/L | 97% | 21.5 mg/L | 98% | 21.9 mg/L | 99% | 22.2 mg/L | hydrolysis rate symbol, (Vmax/V0)-1 [1]: ++ (1-10); hydrolysis rate symbol, (Vmax/V0)-1 [6]: + (0.1-1); Accuracy Replicate 4 [2, 12]: 105%; [Meropenem] Replicate 4 [2, 12]: 23.4 mg/L; Accuracy Replicate 5 [2, 12]: 94%; [Meropenem] Replicate 5 [2, 12]: 21.0 mg/L; hydrolysis rate symbol, (Vmax/V0)-1 [3]: ++ (1-10); hydrolysis rate symbol, (Vmax/V0)-1 [7]: + (0.1-1); hydrolysis rate symbol, (Vmax/V0)-1 [4]: ++ (1-10); hydrolysis rate symbol, (Vmax/V0)-1 [5]: ++ (1-10)
CC1(C)S[C@@H]2[C@H](NC(=O)[C@H](C(=O)O)c3ccsc3)C(=O)N2[C@H]1C(=O)O [Ticarpen ®] | 112% | 1.3 mg/L | 121% | 1.4 mg/L | 122% | 1.4 mg/L | 102% | 1.2 mg/L | 111% | 1.3 mg/L | 105% | 1.2 mg/L | 101% | 22.6 mg/L | 102% | 22.7 mg/L | 105% | 23.4 mg/L | 104% | 23.1 mg/L | hydrolysis rate symbol, (Vmax/V0)-1 [8]: ++ (1-10); Accuracy Replicate 4 [2, 12]: 98%; [Meropenem] Replicate 4 [2, 12]: 21.9 mg/L; Accuracy Replicate 5 [2, 12]: 98%; [Meropenem] Replicate 5 [2, 12]: 21.9 mg/L; hydrolysis rate symbol, (Vmax/V0)-1 [3]: + (0.1-1); hydrolysis rate symbol, (Vmax/V0)-1 [9]: + (0.1-1); hydrolysis rate symbol, (Vmax/V0)-1 [7]: ++ (1-10); hydrolysis rate symbol, (Vmax/V0)-1 [5]: ++++ (>100)
B1 | – | – | – | – | – | – | – | – | – | – | – | – | – | – | – | – | – | – | – | – | Activity loss in 1 h [10]: 2%
B2 | – | – | – | – | – | – | – | – | – | – | – | – | – | – | – | – | – | – | – | – | Activity loss in 1 h [10]: 0%
B3 | – | – | – | – | – | – | – | – | – | – | – | – | – | – | – | – | – | – | – | – | Activity loss in 1 h [10]: 0%
